In US20260215432A1, “ANTIMICROBIAL CONJUGATED OLIGOELECTROLYTES AND METHODS THEREOF” (National University of Singapore, priority 2023, published 2026):

Legend:
[1] = test system: E. coli. K12 (ATCC 10798); assay: MIC, broth microdilution in CA-MHB; assay type: cell-based; settings: ATCC 10798, Table 7
Description: Antimicrobial activity was screened against a range of pathogens made up of clinically relevant ESKAPE pathogens by determination of the minimum inhibitory concentration (MIC) in cation-adjusted Mueller-Hinton broth (CA-MHB).
(§1) Minimum inhibitory concentrations of COEs were determined through a broth microdilution method in accordance with the Clinical and Laboratory Standards Institute (CLSI) guidelines M07-A10. A single bacterial colony was isolated from an overnight culture and grown to mid-log phase (OD600~0.8). Compounds were prepared as a stock solution in DMSO and diluted in a sterile flat-bottom 96-well plate in CA-MHB. Subsequent concentrations were prepared by two-fold dilution of the initial solution. An equivalent volume of bacteria was added to the compound to a final concentration of 5×10^5 cfu/mL. Plates were incubated at 37° C. for 16-18 hours, and read at OD600 using a microplate reader (TECAN Spark®). […] MIC values were determined for each compound in triplicate.

[2] = test system: methicillin-resistant S. aureus (USA300); assay: MIC of compounds 1-5; assay type: cell-based; settings: USA300, Table 7
Description: as §1, with “triplicate. For each test, Polymyxin B (Gram-negative) or vancomycin (Gram-positive) was used as a positive control.” for “triplicate.”

| SMILES | MIC E. coli K12 [1] [µg/mL] | MIC MRSA [2] [µg/mL] |
| --- | --- | --- |
| C(=C\c1cc(OCCC[P+](c2ccccc2)(c2ccccc2)c2ccccc2)cc(OCCC[P+](c2ccccc2)(c2ccccc2)c2ccccc2)c1)/c1ccc(/C=C/c2cc(OCCC[P+](c3ccccc3)(c3ccccc3)c3ccccc3)cc(OCCC[P+](c3ccccc3)(c3ccccc3)c3ccccc3)c2)cc1.[I-].[I-].[I-].[I-] [Compound 5] | 64 | 32 |
| [I-].[I-].c1ccc([P+](CCCCCCCCOc2ccc(/N=N/c3ccc(OCCCCCCCC[P+](c4ccccc4)(c4ccccc4)c4ccccc4)cc3)cc2)(c2ccccc2)c2ccccc2)cc1 [Compound 3] | 32 | 4 |
